Experimental data published in publication PMC12211128, “Safety, tolerability, pharmacokinetic and pharmacodynamic effects of the muscarinic M1 positive allosteric modulator VU0467319 for Alzheimer’s disease: a single ascending-dose study in healthy participants” (Alzheimer's Research & Therapy, 2025).

Assay: Plasma pharmacokinetics, single ascending dose and food effect studies
Assay type: in vivo, human
Conditions: for %AUCext / AUC0 − last / AUC0−∞ / CL/F / Cmax / Vz/F / t½: mean (SD); for Tmax: median (min, max)
Description: Participants were screened up to 40 days prior to admission to the Vanderbilt Clinical Research Center (CRC). At admission, participants had baseline vital signs, clinical laboratory parameters and ECG were collected. The participants stayed overnight at the CRC, and in the morning performed the pre-dose cognitive and electrophysiological (ERP) batteries. Following completion of these batteries, pre-dose blood and urine for pharmacokinetic (PK) analysis was collected, as well as a second set of baseline vital signs. Participants then received an oral dose of VU319 or placebo with water. VU319 doses were assessed in five dose escalating cohorts of eight participants (60, 120, 240, 400 & 600 mg). The initial dose of 60 mg was chosen by allometric scaling of the highest no observed adverse effect level (NOAEL) in animal species and reduced by a safety factor of 10. The increase in doses following the initial dose of 60 mg followed a modified Fibonacci sequence. In each cohort, six participants received oral VU319 while two participants received placebo. The randomization of participants to either placebo or active VU319 was done using a randomly permuted block procedure at a ratio of 1:3 for each of five dosages of VU319. Participants were required to remain in the CRC for 36 h after dosing for the first four cohorts, and for 48 h for the 600 mg cohort and the food effect study due to the change in PK sampling (discussed more below). Cognitive and ERP batteries were performed five hours post-dose. The decision to escalate to the next dose cohort was determined by review and approval from an independent safety monitoring committee, based on the PK data, as well as the safety and tolerability data from the preceding dose level.
The food effect study was completed after the first 5 ascending cohorts, participants were dosed once in a fasted state and once following a controlled high fat breakfast. Based on the PK results of the single ascending dose cohorts (see results), the 120 mg dosage group was chosen for the food effect study. This dose was chosen as it was a low-middle dosage in which the pharmacokinetic parameters could move up or down depending on the addition of food. The food effect study consisted of twelve participants, ten of whom received oral 120 mg VU319, while the other two received placebo. The participants received VU319 or placebo on two separate visits to the Vanderbilt CRC. These visits were separated by at least 14 days to allow for washout. On one visit, participants were dosed in a fasted state, while on the other visit, participants were dosed 30 min after eating a controlled high-fat breakfast. The order of the fed/fast conditions were randomized and balanced so that half the cohort were dosed fasting first, and the other half fed first. Post-dose procedures were shifted 30 min to allow for breakfast, but otherwise all study procedures remained the same as in the ascending dose cohorts.
Blood samples (4 mL) were obtained by direct venipuncture into K2 EDTA tubes at 0.5 h pre-dose and at 0.5, 1, 1.5, 2, 2.5, 3, 5, 7, 9, 12, 24, 26, 28, 36, 48 and 144-hours post-dose. […] Urine samples for PK quantification were collected at pre-dose and 2, 5, 12, 24, 36 and 144-hours post-dose.
Determination of plasma and urine concentrations of VU319 and metabolite VU0481424 (VU424) was carried out in compliance with Good Laboratory Practice using a validated method at Illinois Institute of Technology Research Institute (IITRI) laboratories. Pharmacokinetic endpoints included the following VU319 parameters for plasma: area under the plasma concentration-time curve (AUC0 − 48); area under the plasma concentration-time curve extrapolated to infinity (AUC0−∞); percentage of the extrapolated area under the plasma concentration-time curve (%AUCextrap); maximum observed plasma concentration (Cmax); time (in hours) at which Cmax occurred (Tmax); clearance (Cl/F); elimination half-life (t1/2) and volume of distribution (Vd/F). […]

[1] = VU319 120 mg oral, fasted, food effect study
[2] = VU319 120 mg oral, fed, food effect study

With `Cn1cc2c(-c3cc(F)c(CN4Cc5ncccc5C4=O)c(F)c3)cccc2n1` [VU319] the “inter-participant variability (CV%) of Cmax, AUC0last, AUC0−∞” value (120 mg, fasted and fed conditions) was 24–38%, the “AUC under fed vs fasted conditions” value (120 mg, food effect study) was “insignificantly higher” and the “Cmax under fed vs fasted conditions, higher by” value (120 mg, food effect study) was 51%. For the same compound, the “dose proportionality of systemic exposure (Cmax, AUC0 − last, AUC0−∞)” value (60 to 600 mg, linear power model) was “less than dose-proportional”, the “%AUCext” value (VU319 60 mg oral, SAD) was 4.81 (6.18) % and the “AUC0 − last” value (VU319 60 mg oral, SAD) was 36.8 (10.9) µg•h/mL. The “AUC0−∞” value (VU319 60 mg oral, SAD) was 39.2 (13.3) µg•h/mL, the CL/F (VU319 60 mg oral, SAD) was 1.73 (0.71) L/h and the Cmax (VU319 60 mg oral, SAD) was 0.725 (0.209) µg/mL. The Vz/F (VU319 60 mg oral, SAD) was 71.8 (20.2) L, the t½ (VU319 60 mg oral, SAD) was 31.5 (13.3) h and the Tmax (VU319 60 mg oral, SAD) was 7.00 (2.50, 9.00) h. The “%AUCext” value (VU319 120 mg oral, SAD) was 6.30 (3.55) %, the “AUC0 − last” value (VU319 120 mg oral, SAD) was 60.1 (13.7) µg•h/mL and the “AUC0−∞” value (VU319 120 mg oral, SAD) was 59.0 (9.07) µg•h/mL. For the same compound, the CL/F (VU319 120 mg oral, SAD) was 2.07 (0.28) L/h, the Cmax (VU319 120 mg oral, SAD) was 0.884 (0.312) µg/mL and the Vz/F (VU319 120 mg oral, SAD) was 107 (6.4) L. The t½ (VU319 120 mg oral, SAD) was 55.4 (46.8) h, the Tmax (VU319 120 mg oral, SAD) was 5.00 (2.00, 24.0) h and the “%AUCext” value [1] was 5.86 (4.51) %. For the same compound, the “AUC0 − last” value [1] was 56.8 (18.0) µg•h/mL, the “AUC0−∞” value [1] was 60.7 (23.3) µg•h/mL and the CL/F [1] was 2.35 (1.15) L/h. For the same compound, the Cmax [1] was 0.985 (0.38) µg/mL, the Vz/F [1] was 94.4 (27.8) L and the t½ [1] was 37.4 (15.9) h. For the same compound, the Tmax [1] was 5.11 (2.50, 48.1) h, the “%AUCext” value [2] was 5.79 (4.31) % and the “AUC0 − last” value [2] was 62.5 (15.6) µg•h/mL. For the same compound, the “AUC0−∞” value [2] was 66.6 (19.3) µg•h/mL, the CL/F [2] was 2.01 (0.85) L/h and the Cmax [2] was 1.42 (0.344) µg/mL. For the same compound, the Vz/F [2] was 85.3 (16.4) L, the t½ [2] was 36.9 (17.0) h and the Tmax [2] was 5.02 (2.50, 8.97) h. The “%AUCext” value (VU319 240 mg oral, SAD) was 5.48 (6.31) %, the “AUC0 − last” value (VU319 240 mg oral, SAD) was 63.8 (18.4) µg•h/mL and the “AUC0−∞” value (VU319 240 mg oral, SAD) was 78.3 (15.2) µg•h/mL. The CL/F (VU319 240 mg oral, SAD) was 3.15 (0.58) L/h, the Cmax (VU319 240 mg oral, SAD) was 1.18 (0.425) µg/mL and the Vz/F (VU319 240 mg oral, SAD) was 143 (52.7) L. The t½ (VU319 240 mg oral, SAD) was 35.0 (14.5) h, the Tmax (VU319 240 mg oral, SAD) was 9.50 (3.00, 24.0) h and the “%AUCext” value (VU319 400 mg oral, SAD) was 11.2 (4.73) %. For the same compound, the “AUC0 − last” value (VU319 400 mg oral, SAD) was 132 (47.4) µg•h/mL, the “AUC0−∞” value (VU319 400 mg oral, SAD) was 124 (32.0) µg•h/mL and the CL/F (VU319 400 mg oral, SAD) was 3.42 (0.96) L/h. For the same compound, the Cmax (VU319 400 mg oral, SAD) was 1.72 (0.447) µg/mL, the Vz/F (VU319 400 mg oral, SAD) was 219 (21.6) L and the t½ (VU319 400 mg oral, SAD) was 46.2 (9.54) h. For the same compound, the Tmax (VU319 400 mg oral, SAD) was 5.98 (2.02, 48.2) h, the “%AUCext” value (VU319 600 mg oral, SAD) was 5.73 (2.41) % and the “AUC0 − last” value (VU319 600 mg oral, SAD) was 207 (47.1) µg•h/mL. The “AUC0−∞” value (VU319 600 mg oral, SAD) was 221 (54.6) µg•h/mL, the CL/F (VU319 600 mg oral, SAD) was 2.87 (0.77) L/h and the Cmax (VU319 600 mg oral, SAD) was 2.81 (0.64) µg/mL. For the same compound, the Vz/F (VU319 600 mg oral, SAD) was 123 (23.8) L, the t½ (VU319 600 mg oral, SAD) was 30.4 (4.37) h and the Tmax (VU319 600 mg oral, SAD) was 5.01 (2.00, 48.0) h. The “plasma half-life (initial findings)” value (first SAD cohorts, reason for changed sampling times) was over 30 h and the “dose proportionality of systemic exposure” value (higher doses, 240 to 600 mg) was “approximately proportional to dose”.
